According to patent publication US5928860A, “Process for determining the tolerance, or toxicity of gaseous, liquid and/or viscous substances for the human or animal organism” (priority 1997, dated 1999):

Key:
[1] = system: explants of neonatal rabbit kidneys; type: cell-based
Description: An interactive tissue culture system was established for testing of toxicity. The culture system should provide information on whether the action of the substance perfluorophenathrene which changes the vessels can be established in vitro. Explants of neonatal rabbit kidneys were chosen as the test tissue. Antibodies for detection of vessels in the rabbit tissues are available in laboratory. In addition, the vascular system in this tissue has an extraordinarily high degree of spacial order. The preservation of the structure of the vascular system after application of the test substance was the parameter for assessment of the toxic effect in this test.
Tissue preparation: One to three day old rabbits were sacrificed by cervical dislocation. Organ explants were prepared immediately after removal of the kidneys.
The kidneys of neonatal rabbits are not yet completely developed. In the outermost region of the organ directly under the organ capsule, all nephron developments stages are found in addition to the embryonal tissue. Microsurgical organ explants were prepared from this region. To do this the kidneys were cut in half lengthwise. With fine tweezers the thin organ capsule was removed. With the organ capsule, the renal tissue still in development was detached. Proteases were not used in this preparation method, i.e. the organ-typical extracellular matrix and the intercellular connections remained intact. The organ explants were then stretched onto the retaining ring system.
Culture of the kidney explants: By using a retaining ring system it was possible to use tissue explants which had been […] for the tests. The tissue fragment was prepared in the corresponding size and fixed in the retaining ring. Proteolytic disintegration of the tissue, as can be necessary for culture in the conventional culture dish applications, was not carried out. The tissue fragment stretched onto the retaining ring was brought into contact with the tissue top or bottom with the test substance. The tissue top was defined as the side covered by the organ capsule. The tissue bottom was the tissue side exposed by the preparation. The tissue explants prepared in this way were cultivated with continuous throughflow of the medium. Use of perfusion culture technique in this case enabled complete abandonment of additives of fetal calf serum, adult serum or tissue extracts. The medium consists of a commercially available basic medium (Iscove's Modified Dulbecco's Medium, IMDM) to which the hormones aldosterone (10^-7 M) and 1.25 dihydroxyvitamin D3 (10^-9 M) have been added. In the presence of these hormones the structure of the renal tissue is completely preserved. Necroses were not observed even after culture times of more than 10 days.
For the perfusion culture, stretched explant 5 (organ samples) were inserted into the gradient chamber so that one upper and one lower compartment 6 or 7 are formed which are separated from one another by tissue 5. Upper compartment 6 was filled with the given test substance and no flow takes place through it in the experiment since the test substance was of viscous consistency. Throughflow of the test substance however would be possible in the application of liquid or gaseous substances.
Lower compartment 7 was filled with nutrient solution which was continuously pumped through the chamber compartment. Storage bottle 13 of the medium was connected via a hose connection 11 to the inlet 8 of lower chamber 7. Chamber outflow 9 was connected to the waste bottle. Storage bottle 13 was kept at 4° C. during the entire culture time. Supply hose 11 was inserted into 12 which ensured constant flushing of chamber with medium at 1 ml/h. […] Fundamentally other flow rates are possible. […]

rabbit eye [2] = assay: test of vitreous body replacements in the rabbit eye (animal test)
rabbit eye [3] = conditions: in vivo

Description for tumor cells: In this example, two of these replacements (the substances perfluorophenathrene and perfluorodecaline) were studied. The substances have been tested in a cell culture system.
Cell culture systems are outstandingly suited for detection of acute toxic effects. They allow prompt testing of the direct toxic effect. If the toxicity of a substance is however based on cellular interactions, other systems must be used for analysis.

With `FC1(F)C(F)(F)C(F)(F)C2(F)C(F)(F)C(F)(F)C(F)(F)C(F)(F)C2(F)C1(F)F` (stereo not shown) [Perfluorodecaline, perfluorodecaline] the “Expression of EC 1 antigen” value [1] was “+”, the Tissue structure [1] was “+” and the Vascular structure [1] was “+”. For the same compound, the “preservation of the vascular network / vascular system in renal explants” value [1] was “excellent preservation of the vascular system”, the “tolerance in animal test” value (rabbit eye [2]) was “good tolerance” and the “toxic effects in cell culture” value (tumor cells) was “no indications of toxic effects”.
For `FC1(F)C(F)(F)C(F)(F)C2(F)C(F)(C1(F)F)C(F)(F)C(F)(F)C1(F)C(F)(F)C(F)(F)C(F)(F)C(F)(F)C12F` (stereo not shown) [Perfluorophenathrene, perfluorophenathrene], the “Expression of EC 1 antigen” value [1] was “+”, the Vascular structure [1] was “-” and the “expression of the EC 1 antigen / detection of endothelial cells” value [1] was “expression of the EC 1 antigen was not influenced”. The “damage to the retina or eye” value (rabbit eye [3]) was “major damage to the eye”.
